{"source": "patent US8557290B2", "about": "“Multifunction nanoconjugates for imaging applications and targeted treatment” (priority 2008, dated 2013)", "key": {"[1]": {"test_system": "plasmid DNA (pKaede-MN1 plasmid with R18 insert)", "experiment": "Light-induced plasmid DNA cleavage, agarose gel electrophoresis", "type": "biochemical", "method": "Reactions containing plasmid DNA and either buffer, alizarin red s, TiO2 nanoparticles, or alizarin red s-coated TiO2 nanoparticles were incubated at 37° C. for 10 minutes and either kept in the dark or illuminated with a 75 watt halogen bulb for 5-10 minutes (FIG. 36). Samples were then run via electrophoresis at 50 volts for 4 hours on a 1.25% agarose gel and scanned on a Typhoon Trio multi-mode imager to visualize the different resulting configurations of plasmid DNA (FIG. 36). […] To confirm the identities of plasmid configurations resulting from excitation of alizarin red s-coated TiO2 nanoparticles, supercoiled, nicked, and linearized plasmid DNA bands were excised and purified from the agarose gel.\nThe role of the latter was investigated by expanding upon previous experiments and using TiO2 nanoparticles that were coated with glycidyl isopropyl ether (GIE), which reduces interaction between the nanoparticle surface and its surrounding environment (Paunesku et al Nat. Mater. 2003, 2, 343-346; Rajh et al Nano Lett. 2004, 4, 1017-1023). Plasmid samples containing either GIE, GIE and alizarin red s, or GIE-alizarin red s-coated TiO2 nanoparticles were illuminated for 5 minutes with 150W halogen bulb (FIG. 39).\nThe effect of conjugating different peptide nucleic acid sequences to GIE-alizarin-coated TiO2 nanoparticles on DNA cleavage was investigated (FIG. 40A)."}, "in vitro": {"experiment": "in vitro", "details": "rat"}, "MCF-7 cells [2]": {"test_system": "MCF-7 cells", "experiment": "Intracellular localization by confocal fluorescent microscopy", "details": "1 hour treatment"}, "[3]": {"test_system": "MCF-7/WS8 breast cancer cells", "experiment": "MRI T1 and signal intensity of MCF-7 cells transfected with SuperFect reagent, in agarose phantoms", "type": "cell-based, human", "details": "for T1 value, Equation method / T1 value, Null point method / Signal intensity: SuperFect; for T1 value, Equation method / T1 value, Null point method: 48 hours after treatment, 1.5 T; for Signal intensity: T1-weighted", "experimental": "For transfection experiments MCF-7/W8/WS8 breast cancer cells (American Type Culture Collection, ATCC, Manassas, Va.) and PC3-M prostate cancer cells (ATCC) were grown in a 5% CO2 humidified atmosphere in RPMI1640 cell culture medium (this and all other standard cell culture supplements were from Invitrogen/Gibco, Carlsbad, Calif.) supplemented with 10% fetal bovine serum and antibiotic-antimycotic. MCF-7/WS8 medium also contained insulin at a concentration of 10 μg/mL (Sigma, St. Louis, Mo.), 200 mM 1-glutamine, and 10 mM nonessential amino acids; PC3-M medium also contained 25 μg/mL G418 and 2.4 mg/mL HEPES. Nearly confluent cells were serum-starved for 16 to 20 hours before transfection or treatment.\nFor SuperFect transfection, 60 μL of SuperFect reagent (Qiagen, Valencia, Calif.) and 300 μL of any one of the following: (1) Gd contrast agent, (2) TiO2 nanoparticles, or (3) TiO2-DNA-Gd nanoconjugates were used; these mixtures were applied onto 16 million cells each. Final concentrations of these agents in the medium were (1) 144 μM Gd; (2) 0.12 μM TiO2 nanoparticles, or (3) TiO2-DNA-Gd nanoconjugates wherein TiO2 nanoparticles were 0.12 μM and Gd was 75.6 μM in concentration. Media were exchanged for fresh complete cell media 24 hours later and, after an additional 24-hour incubation, cells were harvested for imaging.\nIn all cases, cells harvested for MRI were embedded in 300 μL agarose phantoms. Once the MRI was completed, these phantoms were used for ICP-MS and/or preparation of paraffin-embedded samples for sectioning and imaging by x-ray fluorescence microscopy.\nTo prepare samples for MRI, 150 μL of Hank's balanced buffered salt solution (HBBS; Invitrogen/Gibco) containing cells were mixed with 2% agarose melted in 150 μL of HBBS. Cells in agarose solidified as a plug and were transferred into tubes, placed in a water bath, and imaged using a 1.5 T Siemens Sonata system (Erlangen, Germany) with a four-channel head coil for signal reception and body coil for excitation. T 1 of each sample was measured using an inversion recovery sequence with repetition time (TR)=4000 ms and inversion times of 50, 200, 500, 800, 1000, 1200, 1500, and 2000 ms. Other scan parameters were: field of view=125×200 mm^2; acquisition matrix=115×192; readout bandwidth=965 Hz/pixel; slice thickness=5 mm; all images were acquired in the coronal orientation.\nFor data analysis the raw data of signal intensity versus TI were fit to the equation: Signal intensity=abs(A*(1−2*exp(−R1*TI))+C, where R1=1/T1. Variables A and C are free parameters of the model. The confidence interval was determined statistically; R2 indicates goodness of fit. The TI corresponding to the lowest signal intensity (TInull) is an indication of the T1 value; this relationship can be estimated by the equation: T1=TInull/ln(2). T1 values determined using the results of the equation fit and the null point relationship are listed in Table 2. Signal intensity, a quantitative metric of relative brightness, was measured with a circular region-of-interest within each sample."}, "MCF-7 cells [4]": {"test_system": "MCF-7 cells", "experiment": "Intracellular Gd by ICP-MS of agarose phantoms with embedded cells", "type": "cell-based, human", "details": "48 hours after transfection", "method": "Sections of agarose phantoms with embedded cells were analyzed by ICP-MS."}, "PC-3M cells": {"test_system": "PC-3M cells", "details": "human, 24 h, 20 mM", "method": "All cell culture reagents were purchased from Mediatech Inc. unless otherwise specified. […] Both cell lines were maintained at 37° C. with 5% CO2 in RPMI 1640 media supplemented with fetal bovine serum (10%), L-glutamine (2 mM), HEPES (10 mM), penicillin (100 I.U./ml), streptomycin (100 μg/ml). […] PC-3M cells were further supplemented with G418 sulfate (0.15 mg/ml). For treatment, cells were washed with phosphate buffered saline solution (PBS) and placed in serum free RPMI 1640 for 1-2 hours. Then cells were treated with TiO2 nanoparticles (333 nM) coated with or without ARS (60 μM), and/or ODN (160 μM) for one hour. […]\nAfter treatment and washing, cells were trypsinized, collected in FBS supplemented medium, and brought to a single cell suspension. […] Samples were then taken to the Northwestern University Flow Cytometry Core Facility of the Robert H. Lurie Cancer Center to be analyzed or sorted on the DakoCytomation MoFlo Flow Cytometer (Dako). […]\nLabeling the nanoparticles, however, allowed one to screen the treated cells simultaneously for nanoparticle uptake (by ARS fluorescence) and for viability (by use of fluorescent cell-impermeable dye). […] Flow cytometry was then used to quantify both the extent of nanoparticle uptake within the cell population, and the cells' ability to exclude cell-impermeable DAPI as an indicator of cell viability."}}}
{"compound": "CC(C)OCC1CO1", "note": "(centres unmarked) [GIE, glycidyl isopropyl ether]", "values": [{"measurement": "plasmid DNA cleavage upon light exposure", "setting": "[1]; 150W halogen bulb, 5 minutes, three replicate experiments", "value": "not cleaved"}]}
{"compound": "COc1cccc2c1C(=O)c1c(O)c3c(c(O)c1C2=O)C[C@@](O)(C(=O)CO)C[C@@H]3O[C@H]1C[C@H](N)[C@H](O)[C@H](C)O1", "note": "[free doxorubicin, Doxorubicin]", "values": [{"measurement": "viability at 4 days, 1.72 μM", "setting": "in vitro", "value": 79.6, "unit": "%"}, {"measurement": "subcellular localization", "setting": "MCF-7 cells [2]", "value": "predominantly located in the cell nucleus"}]}
{"compound": "O=C1c2ccccc2C(=O)c2c1cc(S(=O)(=O)O)c(O)c2O", "note": "[ARS, 1,2 dihydroxyanthraquinone-3-sulfonate]", "values": [{"measurement": "plasmid DNA cleavage upon light exposure", "setting": "[1]; 75 watt halogen bulb, 5-10 minutes", "value": "increase in the presence of nicked plasmid"}]}
{"compound": "PGA-1,6-hexanediamine-(Gd-DOTA)-dopamine conjugate", "values": [{"measurement": "T1 value, Equation method", "setting": "[3]; 5 × 10^5 cells", "value": 1799}, {"measurement": "T1 value, Null point method", "setting": "[3]; 5 × 10^5 cells", "value": 1436}, {"measurement": "Signal intensity", "setting": "[3]; 5 × 10^5 cells, inversion time 1000 ms", "value": 33}, {"measurement": "T1 value, Equation method", "setting": "[3]; 5 × 10^6 cells", "value": 1625}, {"measurement": "T1 value, Null point method", "setting": "[3]; 5 × 10^6 cells", "value": 1235}, {"measurement": "Signal intensity", "setting": "[3]; 5 × 10^6 cells, inversion time 1000 ms", "value": 71}, {"measurement": "T1-weighted signal enhancement of treated cells", "setting": "[3]; T1-weighted images, inversion time 1000 ms, 24 or 48 hours after treatment", "value": "no T1-weighted enhancement"}, {"measurement": "intracellular concentration of Gd (average)", "setting": "MCF-7 cells [4]; 5×10^6 cells, ICP-MS", "value": 0.75, "unit": "µM"}, {"measurement": "Gd retention relative to Gd in cell media", "setting": "MCF-7 cells [4]", "value": 0.5, "unit": "%"}]}
{"compound": "OO", "note": "[H2O2, hydrogen peroxide]", "values": [{"measurement": "reduction in viability", "setting": "PC-3M cells", "value": "approximately 54%"}]}
